These sequences were tested on brain (assay: NGS fold enrichment of synthetic library (passage 3) in C57Bl/6 mice, first cross-species screen). Conditions: synthetic library passage 3, intravenous, RNA NGS, brain of C57Bl/6 mice, relative to wild-type AAV9.
Format: in vivo
Summary of the method: (§1)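 Synthetic capsid library (passage 3) was given intravenously […] to NHPs aged 2-4 years and to BALB/c and C57Bl/6 mice (n=3 each, 6-8 weeks). After about 28 days in vivo, tissue RNA was RT-PCR amplified and NGS-sequenced; values are fold enrichment per variant relative to wild-type AAV9.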

Row | Sequence | Fold enrichment over AAV9 in the brain of Mice (C57Bl/6)
1 | GNGQNQQHSILHGT | 0.777 fold
2 | GSRSQYDIGQNQQT | 0.528 fold
3 | GSGHTNPTRQNQQT | 0.726 fold
4 | GSGPWSAGLQNQQT | 0.700 fold
5 | GSGHSVSGPQNQQT | 1.370 fold
6 | GLSWPSTSGQNQQT | 0.910 fold
7 | GGLGSMSSGQNQQT | 1.802 fold
8 | GSGQTRQMKDNQQT | 0.841 fold
9 | GVKGVGHSGQNQQT | 0.994 fold
10 | GSGQNHRPSVLQQT | 0.433 fold
11 | GNIQWQGSGQNQQT | 1.182 fold
12 | GLGAYQSSGQNQQT | 1.407 fold
13 | GSGQNQQSALRTQT | 1.581 fold
14 | GSGDRYQTLQNQQT | 0.645 fold
15 | GSGIIPVSSQNQQT | 0.642 fold
16 | GSGQNQQRNSDSVT | 1.238 fold
17 | GSGQNQQSSFNVQT | 1.307 fold
18 | GSSHTLALGQNQQT | 0.851 fold
19 | GSGMPASRLQNQQT | 0.790 fold
20 | GREYGHKSGQNQQT | 1.422 fold
21 | GSGQNQQTAMRSTT | 0.656 fold
22 | GRGQNQQHTGLATT | 1.134 fold
23 | GSGQNQANWVKVQT | 0.683 fold
24 | GSGQNQQSNWITKT | 0.540 fold

Same assay, conditions: synthetic library passage 3, intravenous, RNA from brain of C57Bl/6 mice, NGS, relative to wild-type AAV9

Row | Sequence | Fold enrichment over AAV9 in the brain of Mice (C57Bl/6)
25 | GSGQNQQINHRSPT | 0.259 fold
26 | GSGQNQQTSVSQQT | 1.030 fold
27 | GSRTYQVSGQNQQT | 0.638 fold
28 | GSGQREPKASNQQT | 0.399 fold
29 | GSGQYVHVSSNQQT | 0.739 fold
30 | GSIAMTSHGQNQQT | 0.551 fold
31 | GTEQTRQSGQNQQT | 0.756 fold
32 | GSLHAGLSGQNQQT | 1.286 fold

What follows are sequences tested on brain (assay: NGS fold enrichment of synthetic library (passage 3) in BALB/c mice, first cross-species screen). Conditions: synthetic library passage 3, intravenous, RNA NGS, brain of BALB/c mice, relative to wild-type AAV9.
Format: in vivo
Summary of the method: as §1

Row | Sequence | Fold enrichment over AAV9 in the brain of Mice (BALB/c)
33 | GNGQNQQHSILHGT | 0.415 fold
34 | GSRSQYDIGQNQQT | 0.193 fold
35 | GSGHTNPTRQNQQT | 0.807 fold
36 | GSGPWSAGLQNQQT | 0.539 fold
37 | GSGHSVSGPQNQQT | 0.619 fold
38 | GLSWPSTSGQNQQT | 0.610 fold
39 | GGLGSMSSGQNQQT | 0.822 fold
40 | GSGQTRQMKDNQQT | 0.214 fold
41 | GVKGVGHSGQNQQT | 0.783 fold
42 | GSGQNHRPSVLQQT | 0.582 fold
43 | GNIQWQGSGQNQQT | 0.837 fold
44 | GLGAYQSSGQNQQT | 0.688 fold
45 | GSGQNQQSALRTQT | 1.421 fold
46 | GSGDRYQTLQNQQT | 0.318 fold
47 | GSGIIPVSSQNQQT | 0.253 fold
48 | GSGQNQQRNSDSVT | 0.842 fold
49 | GSGQNQQSSFNVQT | 0.675 fold
50 | GSSHTLALGQNQQT | 0.406 fold
51 | GSGMPASRLQNQQT | 0.372 fold
52 | GREYGHKSGQNQQT | 0.959 fold
53 | GSGQNQQTAMRSTT | 0.665 fold
54 | GRGQNQQHTGLATT | 0.691 fold
55 | GSGQNQANWVKVQT | 0.532 fold
56 | GSGQNQQSNWITKT | 0.634 fold

Same assay, conditions: synthetic library passage 3, intravenous, RNA from brain of BALB/c mice, NGS, relative to wild-type AAV9

Row | Sequence | Fold enrichment over AAV9 in the brain of Mice (BALB/c)
57 | GSGQNQQINHRSPT | 0.220 fold
58 | GSGQNQQTSVSQQT | 0.913 fold
59 | GSRTYQVSGQNQQT | 0.641 fold
60 | GSGQREPKASNQQT | 0.520 fold
61 | GSGQYVHVSSNQQT | 0.366 fold
62 | GSIAMTSHGQNQQT | 0.438 fold
63 | GTEQTRQSGQNQQT | 0.756 fold
64 | GSLHAGLSGQNQQT | 0.936 fold

Each sequence was assayed on brain, spinal cord, and DRG of the NHPs (assay: NGS fold enrichment of synthetic library (passage 3) in NHPs, first cross-species screen). Conditions: synthetic library passage 3, intravenous, RNA NGS, brain of NHPs, relative to wild-type AAV9.
Format: in vivo, cynomolgus macaques (Macaca fascicularis)
Summary of the method: as §1

Row | Sequence | Fold enrichment over AAV9 in the brain of NHPs
65 | GNGQNQQHSILHGT | 1.435 fold
66 | GSRSQYDIGQNQQT | 1.706 fold
67 | GSGHTNPTRQNQQT | 1.021 fold
68 | GSGPWSAGLQNQQT | 1.067 fold
69 | GSGHSVSGPQNQQT | 1.993 fold
70 | GLSWPSTSGQNQQT | 2.238 fold
71 | GGLGSMSSGQNQQT | 2.812 fold
72 | GSGQTRQMKDNQQT | 1.530 fold
73 | GVKGVGHSGQNQQT | 1.096 fold
74 | GSGQNHRPSVLQQT | 1.983 fold
75 | GNIQWQGSGQNQQT | 2.468 fold
76 | GLGAYQSSGQNQQT | 1.574 fold
77 | GSGQNQQSALRTQT | 1.568 fold
78 | GSGDRYQTLQNQQT | 1.897 fold
79 | GSGIIPVSSQNQQT | 6.352 fold
80 | GSGQNQQRNSDSVT | 1.829 fold
81 | GSGQNQQSSFNVQT | 0.998 fold
82 | GSSHTLALGQNQQT | 1.441 fold
83 | GSGMPASRLQNQQT | 1.117 fold
84 | GREYGHKSGQNQQT | 3.453 fold
85 | GSGQNQQTAMRSTT | 1.581 fold
86 | GRGQNQQHTGLATT | 1.650 fold
87 | GSGQNQANWVKVQT | 1.059 fold
88 | GSGQNQQSNWITKT | 2.711 fold

Same assay, conditions: synthetic library passage 3, intravenous, RNA NGS, spinal cord of NHPs, relative to wild-type AAV9

Row | Sequence | Fold enrichment over AAV9 in the spinal cord of NHPs
89 | GNGQNQQHSILHGT | 0.000 fold
90 | GSRSQYDIGQNQQT | 0.112 fold
91 | GSGHTNPTRQNQQT | 0.688 fold
92 | GSGPWSAGLQNQQT | 0.947 fold
93 | GSGHSVSGPQNQQT | 6.259 fold
94 | GLSWPSTSGQNQQT | 0.000 fold
95 | GGLGSMSSGQNQQT | 1.405 fold
96 | GSGQTRQMKDNQQT | 11.079 fold
97 | GVKGVGHSGQNQQT | 2.485 fold
98 | GSGQNHRPSVLQQT | 5.582 fold
99 | GNIQWQGSGQNQQT | 6.266 fold
100 | GLGAYQSSGQNQQT | 0.696 fold
101 | GSGQNQQSALRTQT | 1.913 fold
102 | GSGDRYQTLQNQQT | 1.075 fold
103 | GSGIIPVSSQNQQT | 0.000 fold
104 | GSGQNQQRNSDSVT | 0.000 fold
105 | GSGQNQQSSFNVQT | 0.000 fold
106 | GSSHTLALGQNQQT | 7.071 fold
107 | GSGMPASRLQNQQT | 1.689 fold
108 | GREYGHKSGQNQQT | 0.000 fold
109 | GSGQNQQTAMRSTT | 2.588 fold
110 | GRGQNQQHTGLATT | 6.174 fold
111 | GSGQNQANWVKVQT | 0.126 fold
112 | GSGQNQQSNWITKT | 0.000 fold

Same assay, conditions: synthetic library passage 3, intravenous, RNA from brain of NHPs, NGS, relative to wild-type AAV9

Row | Sequence | Fold enrichment over AAV9 in the brain of NHPs
113 | GSGQNQQINHRSPT | 1.173 fold
114 | GSGQNQQTSVSQQT | 1.342 fold
115 | GSRTYQVSGQNQQT | 1.164 fold
116 | GSGQREPKASNQQT | 1.214 fold
117 | GSGQYVHVSSNQQT | 1.137 fold
118 | GSIAMTSHGQNQQT | 1.178 fold
119 | GTEQTRQSGQNQQT | 1.188 fold
120 | GSLHAGLSGQNQQT | 1.408 fold

Same assay, conditions: synthetic library passage 3, intravenous, RNA from spinal cord of NHPs, NGS, relative to wild-type AAV9

Row | Sequence | Fold enrichment over AAV9 in the spinal cord of NHPs
121 | GSGQNQQINHRSPT | 0.748 fold
122 | GSGQNQQTSVSQQT | 1.614 fold
123 | GSRTYQVSGQNQQT | 1.853 fold
124 | GSGQREPKASNQQT | 2.793 fold
125 | GSGQYVHVSSNQQT | 1.803 fold
126 | GSIAMTSHGQNQQT | 1.435 fold
127 | GTEQTRQSGQNQQT | 0.132 fold
128 | GSLHAGLSGQNQQT | 1.739 fold

— US20260250318A1, “COMPOSITIONS AND METHODS FOR CROSSING THE BLOOD BRAIN BARRIER” (VOYAGER THERAPEUTICS, INC., priority 2022, published 2026)
